Data as given in US7737136B2 (N.V. Organon, priority 2002, dated 2010).
Like-named read-outs stand apart in the source and are kept apart here.

Biological target: T1, human progesterone receptor-B (Homo sapiens, UniProt P06401)
T1 construct: expressed in transfected cells; host or cells: Chinese hamster ovary (CHO) cells, line CHO-PRB-pMMTV-LUC 1E2-A2
T1 sequence (P06401 1-933): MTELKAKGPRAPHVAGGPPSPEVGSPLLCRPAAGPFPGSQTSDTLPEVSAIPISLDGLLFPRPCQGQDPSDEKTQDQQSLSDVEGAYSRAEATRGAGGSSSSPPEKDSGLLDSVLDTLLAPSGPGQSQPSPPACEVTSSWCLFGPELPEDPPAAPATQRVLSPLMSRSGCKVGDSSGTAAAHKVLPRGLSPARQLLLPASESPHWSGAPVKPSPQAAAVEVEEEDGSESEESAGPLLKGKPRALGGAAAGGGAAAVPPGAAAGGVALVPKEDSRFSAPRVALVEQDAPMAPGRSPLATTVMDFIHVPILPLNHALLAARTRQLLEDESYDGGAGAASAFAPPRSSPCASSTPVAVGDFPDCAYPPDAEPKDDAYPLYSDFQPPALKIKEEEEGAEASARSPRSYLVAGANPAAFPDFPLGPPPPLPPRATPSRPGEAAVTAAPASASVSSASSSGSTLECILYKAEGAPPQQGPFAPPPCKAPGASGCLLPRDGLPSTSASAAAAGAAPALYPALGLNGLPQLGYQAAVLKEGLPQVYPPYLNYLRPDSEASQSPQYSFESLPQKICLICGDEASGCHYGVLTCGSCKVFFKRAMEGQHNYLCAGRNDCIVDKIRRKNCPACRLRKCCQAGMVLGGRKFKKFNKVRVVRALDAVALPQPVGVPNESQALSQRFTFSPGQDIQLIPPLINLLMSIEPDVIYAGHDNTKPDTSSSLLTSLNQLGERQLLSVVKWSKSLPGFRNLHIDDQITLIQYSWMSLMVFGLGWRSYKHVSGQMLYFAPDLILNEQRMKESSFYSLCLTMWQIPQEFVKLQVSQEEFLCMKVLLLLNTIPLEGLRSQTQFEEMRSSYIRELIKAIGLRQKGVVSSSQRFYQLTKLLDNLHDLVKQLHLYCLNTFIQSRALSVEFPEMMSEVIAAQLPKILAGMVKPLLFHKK
Test: Progesterone receptor-B transactivation assay, progestagenic (agonist) activity, CHO-PRB-pMMTV-LUC 1E2-A2 cells
Format: cell-based
Protocol: The (anti-)progestagenic activity of a compound of the invention (EC 50 and intrinsic activity) was determined in an in vitro bioassay of Chinese hamster ovary (CHO) cells stably transfected with the human progesterone receptor-B expression plasmid and with a reporter plasmid in which the MMTV-promoter is linked to the luciferase reporter gene. […] The cells were cultured with charcoal-treated supplemented defined bovine calf serum from Hyclone (Utah, USA) in Dulbecco's Modified Eagles Medium/Nutrient Mixture F-12 (DMEM/HAM F12 in ratio 1:1) from Gibco (Paisley, UK).

[1] = CHO cells stably transfected with human progesterone receptor-B and MMTV-luciferase reporter, read-out: Progestagenic activity EC50

Compound | EC50 [nM] | EC50 [1] [nM]
N[C@H]1CCCN2c3cc(F)ccc3Oc3ccccc3[C@H]12 (relative stereo) [Example 1, trans-7-Fluoro-2,3,4,14b-tetrahydro-1H-dibenzo[b,f]pyrido[1,2-d][1,4]oxazepine-1-amine] | 100 to 10000 | –
N[C@H]1CCCN2c3cc(Cl)ccc3Oc3ccccc3[C@H]12 (relative stereo) [Example 3, trans-7-Chloro-2,3,4,14b-tetrahydro-1H-dibenzo[b,f]pyrido[1,2-d][1,4]oxazepine-1-amine] | – | 100 to 10000
O=C(N[C@H]1CCCN2c3cc(Cl)ccc3Sc3ccccc3[C@H]12)C(F)(F)F (relative stereo) [Example 6, trans-2,2,2-Trifluoro-N-(7-chloro-2,3,4,14b-tetrahydro-1H-dibenzo[b,f]pyrido[1,2-d][1,4]thiazepin-1-yl)acetamide] | – | < 10
O=C(CF)N[C@H]1CCCN2c3cc(Cl)ccc3Oc3ccccc3[C@H]12 (relative stereo) [Example 11, trans-N-(7-Chloro-2,3,4,14b-tetrahydro-1H-dibenzo[b,f]pyrido[1,2-d][1,4]oxazepin-1-yl)-2-fluoroacetamide] | 10 to 100 | –
NCC(=O)N[C@H]1CCCN2c3cc(Cl)ccc3Oc3ccccc3[C@H]12 (relative stereo) [Example 16, trans-2-Amino-N-(7-chloro-2,3,4,14b-tetrahydro-1H-dibenzo[b,f]pyrido[1,2-d][1,4]oxazepin-1-yl)acetamide] | – | 100 to 10000
S=CN[C@H]1CCCN2c3cc(Cl)ccc3Oc3ccccc3[C@H]12 (relative stereo) [Example 18, trans-N-(7-Chloro-2,3,4,14b-tetrahydro-1H-dibenzo[b,f]pyrido[1,2-d][1,4]oxazepin-1-yl)methanethioamide] | – | 100 to 10000
FC(F)(F)C(=S)N[C@H]1CCCN2c3cc(Cl)ccc3Oc3ccccc3[C@H]12 (relative stereo) [Example 19] | – | < 10
FC(F)C(=S)N[C@H]1CCCN2c3cc(Cl)ccc3Oc3ccccc3[C@H]12 (relative stereo) [Example 23] | – | < 10
FC(F)(F)C(=S)N[C@H]1CCCN2c3ccccc3Oc3ccccc3[C@H]12 (relative stereo) [Example 25] | – | < 10
FC(F)(F)C(=S)N[C@H]1CCCN2c3c(ccc(Cl)c3Cl)Oc3ccccc3[C@H]12 (relative stereo) [Example 26] | – | < 10
NCC(=S)N[C@H]1CCCN2c3cc(Cl)ccc3Oc3ccccc3[C@H]12 (relative stereo) [Example 27] | – | 100 to 10000
CN(C(=O)C(F)(F)F)[C@H]1CCCN2c3cc(Cl)ccc3Oc3ccccc3[C@H]12 (relative stereo) [Example 28, trans-N-(7-Chloro-2,3,4,14b-tetrahydro-1H-dibenzo[b,f]pyrido[1,2-d][1,4]oxazepin-1-yl)-2,2,2-trifluoro-N-methylacetamide] | – | 100 to 10000
O=C(N[C@H]1CCCN2c3cc(Cl)ccc3Oc3ccccc3[C@H]12)OCCl (relative stereo) [Example 30, Trans-(7-Chloro-2,3,4,14b-tetrahydro-1H-dibenzo[b,f]pyrido[1,2-d][1,4]oxazepin-1-yl)carbamic Acid Chloromethyl Ester] | – | 100 to 10000
CC(C)CN[C@H]1CCCN2c3cc(Cl)ccc3Oc3ccccc3[C@H]12 (relative stereo) [Example 36, trans-N-(2-Methylpropyl)-7-chloro-2,3,4,14b-tetrahydro-1H-dibenzo[b,f]pyrido[1,2-d][1,4]oxazepine-1-amine] | – | 100 to 10000
CCCN[C@H]1CCCN2c3cc(Cl)ccc3Oc3ccccc3[C@H]12 (relative stereo) [Example 37, trans-N-Propyl-7-chloro-2,3,4,14b-tetrahydro-1H-dibenzo[b,f]pyrido[1,2-d][1,4]oxazepine-1-amine] | 100 to 10000 | –
O=C(N[C@H]1CCCN2c3c(ccc(Cl)c3Cl)Oc3ccccc3[C@H]12)C(F)(F)F (relative stereo) [Example 38B, trans-N-(6,7-Dichloro-2,3,4,14b-tetrahydro-1H-dibenzo[b,f]pyrido[1,2-d][1,4]oxazepin-1-yl)-2,2,2-trifluoroacetamide] | – | < 10
O=C(N[C@H]1CCCN2c3c(Cl)cccc3Oc3ccccc3[C@H]12)C(F)(F)F (relative stereo) [Example 42B] | – | 100 to 10000
CS(=O)(=O)N(c1cc2c(cc1Cl)N1CCC[C@H](NC(=O)C(F)(F)F)[C@H]1c1ccccc1O2)S(C)(=O)=O (relative stereo) [Example 44, trans-N-(7-Chloro-2,3,4,14b-tetrahydro-8-[bis(methylsulfonyl)amino]-1H-dibenzo[b,f]pyrido[1,2-d][1,4]oxazepin-1-yl)-2,2,2-trifluoroacetamide] | – | 100 to 10000
O=C(N[C@H]1CCCN2c3cc(Cl)c(NS(=O)(=O)c4ccccc4)cc3Oc3ccccc3[C@H]12)C(F)(F)F (relative stereo) [Example 45, trans-N-(7-Chloro-2,3,4,14b-tetrahydro-8-[(phenylsulfonyl)amino]-1H-dibenzo[b,f]pyrido[1,2-d][1,4]oxazepin-1-yl)-2,2,2-trifluoroacetamide] | – | 10 to 100
CC(C)(C)OC(=O)Nc1cc2c(cc1Cl)N1CCC[C@H](NC(=O)C(F)(F)F)[C@H]1c1ccccc1O2 (relative stereo) [Example 46, trans-N-(7-Chloro-2,3,4,14b-tetrahydro-1-(2,2,2-trifluoroacetylamino)1H-dibenzo[b,f]pyrido[1,2-d][1,4]oxazepin-8-yl)carbamic Acid 1,1-dimethylethyl Ester] | – | 10 to 100
CC(=O)N[C@H]1CCCN2c3c(ccc(Cl)c3Cl)Oc3ccccc3[C@H]12 (relative stereo) [Example 47, trans-N-(6,7-Dichloro-2,3,4,14b-tetrahydro-1H-dibenzo[b,f]pyrido[1,2-d][1,4]oxazepin-1-yl)acetamide] | – | < 10
O=C(N[C@H]1CCCN2c3c(Br)cccc3Oc3ccccc3[C@H]12)C(F)(F)F (relative stereo) [Example 51, trans-N-(6-Bromo-2,3,4,14b-tetrahydro-1H-dibenzo[b,f]pyrido[1,2-d][1,4]oxazepin-1-yl)-2,2,2-trifluoroacetamide] | – | < 10
CC(=O)c1cccc2c1N1CCC[C@H](NC(=O)C(F)(F)F)[C@H]1c1ccccc1O2 (relative stereo) [Example 52, trans-N-(6-Acetyl-2,3,4,14b-tetrahydro-1H-dibenzo[b,f]pyrido[1,2-d][1,4]oxazepin-1-yl)-2,2,2-trifluoroacetamide] | – | < 10
N#Cc1cccc2c1N1CCC[C@H](NC(=O)C(F)(F)F)[C@H]1c1ccccc1O2 (relative stereo) [Example 53, trans-2,3,4,14b-Tetrahydro-1-[(trifluoroacetyl)amino]-1H-dibenzo[b,f]pyrido[1,2-d][1,4]oxazepine-6-carbonitrile] | – | < 10
C=Cc1cccc2c1N1CCC[C@H](NC(=O)C(F)(F)F)[C@H]1c1ccccc1O2 (relative stereo) [Example 54, trans-N-(6-Ethenyl-2,3,4,14b-tetrahydro-1H-dibenzo[b,f]pyrido[1,2-d][1,4]oxazepin-1-yl)-2,2,2-trifluoroacetamide] | – | < 10
COc1cccc2c1N1CCC[C@H](NC(=O)C(F)(F)F)[C@H]1c1ccccc1O2 (relative stereo) [Example 55, trans-N-(2,3,4,14b-Tetrahydro-6-methoxy-1H-dibenzo[b,f]pyrido[1,2-d][1,4]oxazepin-1-yl)-2,2,2-trifluoroacetamide] | – | 10 to 100
